Results from ChEMBL document CHEMBL4190311, “Discovery of cycloalkyl-fused N-thiazol-2-yl-benzamides as tissue non-specific glucokinase activators: Design, synthesis, and biological evaluation” (Eur J Med Chem, 2017).
pEC50: −log10 of the molar value. Activity calls are given as the source filed them. The calls are words filed in the database; no cut-off is given here.

Columns and labels:
Hepatocyte = assay: Increase in glucose uptake in mouse primary hepatocytes assessed as glucose uptake level at 20 uM after 24 hrs by glucose oxidase method relative to control; assay type: functional
[1] = AUC (0 to infinity) in Sprague-Dawley rat at 10 mg/kg, po by LC-MS/MS analysis; assay type: ADME, organism-based; set-up: dose 10 mg/kg, time infinity, route oral; details: in vivo
[2] = Half life in Sprague-Dawley rat at 10 mg/kg, po by LC-MS/MS analysis; assay type: ADME, organism-based; details: in vivo
[3] = biological target: T1, Hexokinase-4 (Rattus norvegicus) (UniProt P17712); assay: Activation of glucokinase in rat INS1(832/13) cells assessed as increase in glucose sensitive insulin secretion at 20 uM after 2 hrs in presence of 5.5 mM glucose by AlphaLISA method relative to control; assay type: cell-based
T1 sequence (whole entry): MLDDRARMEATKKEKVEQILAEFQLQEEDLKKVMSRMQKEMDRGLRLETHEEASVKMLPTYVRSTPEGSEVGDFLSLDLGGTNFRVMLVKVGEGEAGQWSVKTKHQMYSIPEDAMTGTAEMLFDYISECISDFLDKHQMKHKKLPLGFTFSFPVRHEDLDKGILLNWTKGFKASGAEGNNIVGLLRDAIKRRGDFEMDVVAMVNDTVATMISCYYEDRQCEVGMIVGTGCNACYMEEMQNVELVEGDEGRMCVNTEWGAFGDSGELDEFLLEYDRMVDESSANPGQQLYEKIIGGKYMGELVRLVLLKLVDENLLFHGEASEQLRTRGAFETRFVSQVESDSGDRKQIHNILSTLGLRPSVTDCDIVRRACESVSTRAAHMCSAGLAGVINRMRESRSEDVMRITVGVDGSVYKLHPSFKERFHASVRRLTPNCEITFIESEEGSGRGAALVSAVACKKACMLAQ

Mus musculus [4] = assay: Antidiabetic activity in dosed db/db mouse BKS.Cg-Dock7m+/+ Leprdb/J assessed as reduction in glucose AUC level at 30 to 60 mg/kg/day, po for 5 weeks measured up to 120 mins after over night fasting at fourth week during OGTT method; assay type: functional, organism-based
INS1(832/13) [5] = assay: Cytoprotection in rat INS1(832/13) cells assessed as reduction in streptozocin induced beta cells apoptosis after 20 hrs by MTT based spectrophotometric method relative to control; assay type: functional; set-up: scale not given: the % may be the effect or the level left
Mus musculus [6] = assay: Antidiabetic activity in db/db mouse BKS.Cg-Dock7m+/+ Leprdb/J assessed as reduction in HbA1c level at 15 to 60 mg/kg/day, po for 5 weeks; assay type: functional, organism-based
Mus musculus [7] = assay: Toxicity in db/db mouse BKS.Cg-Dock7m+/+ Leprdb/J assessed as dyslipidemia by measuring effect on high density lipoprotein-cholesterol level at 15 to 60 mg/kg, po administered daily for 5 weeks; assay type: organism-based; details: in vivo, 840 h
Mus musculus [8] = assay: Toxicity in C57BL/6J mouse assessed as decrease in fasting blood glucose level at 200 mg/kg, po administered as single dose measured over 6 hrs; assay type: organism-based; details: in vivo
Hexokinase-4 [9] = biological target: T2, Hexokinase-4 (Homo sapiens, UniProt P35557); assay: Activation of recombinant human liver glucokinase 2 assessed as assessed as reduction in Km for glucose in presence of 5 mM glucose by G6PDH coupled assay
T2 sequence (P35557 whole entry): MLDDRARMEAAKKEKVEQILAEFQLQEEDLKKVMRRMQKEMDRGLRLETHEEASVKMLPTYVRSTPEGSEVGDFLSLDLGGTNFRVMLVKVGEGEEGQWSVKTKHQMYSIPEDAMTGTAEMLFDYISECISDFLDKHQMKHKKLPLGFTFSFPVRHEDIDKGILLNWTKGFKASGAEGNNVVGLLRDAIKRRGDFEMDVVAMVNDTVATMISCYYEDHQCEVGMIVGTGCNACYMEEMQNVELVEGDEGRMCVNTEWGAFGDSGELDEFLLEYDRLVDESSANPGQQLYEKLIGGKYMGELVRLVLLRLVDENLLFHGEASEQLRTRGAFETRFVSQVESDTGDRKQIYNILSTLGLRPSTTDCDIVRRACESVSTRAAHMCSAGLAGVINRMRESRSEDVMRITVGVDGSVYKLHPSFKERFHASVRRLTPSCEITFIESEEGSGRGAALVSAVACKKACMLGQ

Mus musculus [10] = assay: Toxicity in db/db mouse BKS.Cg-Dock7m+/+ Leprdb/J assessed as dyslipidemia by measuring effect on cholesterol level at 15 to 60 mg/kg, po administered daily for 5 weeks; assay type: organism-based; details: in vivo, 840 h
[11] = Tmax in Sprague-Dawley rat at 10 mg/kg, po by LC-MS/MS analysis; assay type: ADME, organism-based; details: in vivo
Mus musculus [12] = assay: Antidiabetic activity in po dosed db/db mouse BKS.Cg-Dock7m+/+ Leprdb/J assessed as reduction in glucose excursion administered daily for 5 weeks measured up to 120 mins after over night fasting at fourth week by OGTT method; assay type: functional, organism-based
Hexokinase-4 [13] = biological target: T2, Hexokinase-4; assay: Activation of recombinant human liver glucokinase 2 assessed as […] in presence of 5 mM glucose by G6PDH coupled assay
Mus musculus [14] = assay: Toxicity in db/db mouse BKS.Cg-Dock7m+/+ Leprdb/J assessed as dyslipidemia by measuring effect on low density lipoprotein-cholesterol level at 15 to 60 mg/kg, po administered daily for 5 weeks; assay type: organism-based; details: in vivo, 840 h
Mus musculus [15] = assay: Antidiabetic activity in db/db mouse BKS.Cg-Dock7m+/+ Leprdb/J assessed as reduction in fasting plasma glucose level at 15 to 60 mg/kg/day, po for 5 weeks; assay type: functional, organism-based
INS1(832/13) [16] = assay: Cytoprotection in rat INS1(832/13) cells assessed as reduction in streptozocin induced beta cells apoptosis after 20 hrs by MTT based spectrophotometric method; assay type: functional, cell-based; details: INS-1 832/13, 20 h

## COC[C@H](C)Oc1cc(Oc2ccc(C(=O)N3CCC3)cc2)cc(C(=O)Nc2nc3c(s2)CN(C(=O)OC(C)(C)C)CC3)c1
Hepatocyte
  Activity: 15%
[1]
  AUC(0-inf): 7580 ng·h/mL
[2]
  half-life: 30 min
[3]
  fold change (FC): 2.69
Mus musculus [4]
  Activity: Active
INS1(832/13) [5]
  Activity: 161%
Mus musculus [6]
  Activity: Active
Mus musculus [7]
  Activity: Non-Toxic
Mus musculus [8]
  Activity: Non-Toxic
Hexokinase-4 [9]
  pEC50: 7.30
Mus musculus [10]
  Activity: Non-Toxic
[11]
  Tmax: 34.8 min
Mus musculus [12]
  Activity: Dose-dependent effect
Hexokinase-4 [13]
  pEC50: 6.80
Mus musculus [14]
  Activity: Non-Toxic
Mus musculus [15]
  Activity: Active
INS1(832/13) [16]
  pEC50: 6.31

## COCC(C)Oc1cc(Oc2ccc(S(C)(=O)=O)cc2)cc(C(=O)Nc2nc3c(s2)CCCC3)c1 (stereo unspecified)
Hepatocyte
  Activity: 31%
[3]
  fold change (FC): inactive
INS1(832/13) [5]
  Activity: 66%
Hexokinase-4 [9]
  pEC50: 7.52
Hexokinase-4 [13]
  pEC50: 6.05
INS1(832/13) [16]
  pEC50: 6.15

## COCC(C)Oc1cc(Oc2ccc(C(=O)N3CCC3)cc2)cc(C(=O)Nc2nc3c(s2)CN(C(=O)OC(C)(C)C)CC3)c1 (stereo unspecified)
Hepatocyte
  Activity: 33%
[3]
  fold change (FC): 2.29
INS1(832/13) [5]
  Activity: 180%
Hexokinase-4 [9]
  pEC50: 6.82
Hexokinase-4 [13]
  pEC50: 6.54
INS1(832/13) [16]
  pEC50: 6.17

## Cc1cnc(NC(=O)c2cc(Oc3cnc(C(=O)N(C)C)nc3)c3cc(C)oc3c2)cn1 [NERIGLIATIN]
INS1(832/13) [5]
  Activity: 114%
INS1(832/13) [16]
  pEC50: 5.67
